Reference: PubChem BioAssay AID330 (DTP/NCI, 2004)
Inconclusive results and toxic doses are left out. How the source made its calls: active means survival T/C of 150% or more; inactive means T/C below 125% in these data.

System: P388 leukemia ip, CD2F1 mice, survival T/C
Test: NCI In Vivo Anticancer Drug Screen. Data for tumor model P388 Leukemia (intraperitoneal) in CD2F1 (CDF1) mice
Details: endpoint: median survival time, schedule: Q01DX005 (ip), vehicle: Klucel (hydroxypropylcellulose) (HPC), higher = longer survival
Method in brief: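 Mice carrying the transplanted tumor received test compound or vehicle. Survival was recorded in each group, and the value is the treated-group measurement divided by that of the vehicle-treated control group.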

Measured: T/C

O=C1c2ccccc2C(=O)c2c(NCC3CO3)ccc(NCC3CO3)c21 (centres undefined)
inactive: dose: 0.75 mg/kg/injection 112 % of control | dose: 1.5 mg/kg/injection 112 % of control | dose: 3.0 mg/kg/injection 114 % of control | dose: 6.0 mg/kg/injection 114 % of control
